Results as given in US20230157952A1, “METHOD FOR IMPROVING THE STABILITY OF A PHARMACEUTICAL COMPOSITION COMPRISING A HIGH PENETRATION DRUG, AND THE PHARMACEUTICAL COMPOSITION OBTAINED THEREFROM” (Techfields Inc., priority 2020, published 2023).

Experiment: Effect of temperature (and pH) on the stability of the solution (purity)
Format: physicochemical
Conditions: 7% solution in water

For CCN(CC)CCOC(=O)COC(=O)Cc1c(C)n(C(=O)c2ccc(Cl)cc2)c2ccc(OC)cc12.Cl [2-(diethylamino)ethyl 1-(4-chlorobenzoyl-5-methoxy-2-methyl-1H-indole-3-acetoxyacetate.HCl], the “Stability of the solution at a temperature higher than 40° C. and a pH lower than 3 or greater than 6” value was “not stable”.

With CCN(CC)CCOC(=O)Cc1c(C)n(C(=O)c2ccc(Cl)cc2)c2ccc(OC)cc12.Cl the “Purity(%) at day 0” value (pH 1.0, day 0) was 98.1 ± 0.3%, the “Purity(%) at day 21 (5° C.)” value (pH 1.0, day 21, 5° C.) was 92.3 ± 0.3% and the “Purity(%) at day 21 (25° C.)” value (pH 1.0, day 21, 25° C.) was 69.0 ± 0.3%. For the same molecule, the “Purity(%) at day 21 (40° C.)” value (pH 1.0, day 21, 40° C.) was 15.3 ± 0.3%, the “Purity (%) at day 21 (60° C.)” value (pH 1.0, day 21, 60° C.) was 0% and the “Purity(%) at day 0” value (pH 2.0, day 0) was 98.3 ± 0.4%. The “Purity(%) at day 21 (5° C.)” value (pH 2.0, day 21, 5° C.) was 95.9 ± 0.3%, the “Purity(%) at day 21 (25° C.)” value (pH 2.0, day 21, 25° C.) was 83.1 ± 0.3% and the “Purity(%) at day 21 (40° C.)” value (pH 2.0, day 21, 40° C.) was 27.5 ± 0.3%. For the same molecule, the “Purity (%) at day 21 (60° C.)” value (pH 2.0, day 21, 60° C.) was 0%, the “Purity(%) at day 0” value (pH 3.0, day 0) was 98.5 ± 0.2% and the “Purity(%) at day 21 (5° C.)” value (pH 3.0, day 21, 5° C.) was 97.3 ± 0.3%. The “Purity(%) at day 21 (25° C.)” value (pH 3.0, day 21, 25° C.) was 94.5 ± 0.2%, the “Purity(%) at day 21 (40° C.)” value (pH 3.0, day 21, 40° C.) was 49.3 ± 0.3% and the “Purity (%) at day 21 (60° C.)” value (pH 3.0, day 21, 60° C.) was 0%. For the same molecule, the “Purity(%) at day 0” value (pH 3.7, day 0) was 98.5 ± 0.2%, the “Purity(%) at day 21 (5° C.)” value (pH 3.7, day 21, 5° C.) was 97.7 ± 0.2% and the “Purity(%) at day 21 (25° C.)” value (pH 3.7, day 21, 25° C.) was 97.3 ± 0.3%. The “Purity(%) at day 21 (40° C.)” value (pH 3.7, day 21, 40° C.) was 57.9 ± 0.2%, the “Purity (%) at day 21 (60° C.)” value (pH 3.7, day 21, 60° C.) was 16.3 ± 0.5% and the “Purity(%) at day 0” value (pH 4.0, day 0) was 98.7 ± 0.1%. For the same molecule, the “Purity(%) at day 21 (5° C.)” value (pH 4.0, day 21, 5° C.) was 98.1 ± 0.3%, the “Purity(%) at day 21 (25° C.)” value (pH 4.0, day 21, 25° C.) was 97.5 ± 0.2% and the “Purity(%) at day 21 (40° C.)” value (pH 4.0, day 21, 40° C.) was 68.7 ± 0.3%. For the same molecule, the “Purity (%) at day 21 (60° C.)” value (pH 4.0, day 21, 60° C.) was 19.6 ± 0.3%, the “Purity(%) at day 0” value (pH 4.3, day 0) was 98.8 ± 0.2% and the “Purity(%) at day 21 (5° C.)” value (pH 4.3, day 21, 5° C.) was 98.3 ± 0.3%. The “Purity(%) at day 21 (25° C.)” value (pH 4.3, day 21, 25° C.) was 97.3 ± 0.3%, the “Purity(%) at day 21 (40° C.)” value (pH 4.3, day 21, 40° C.) was 70.1 ± 0.3% and the “Purity (%) at day 21 (60° C.)” value (pH 4.3, day 21, 60° C.) was 17.7 ± 0.2%. For the same molecule, the “Purity(%) at day 0” value (pH 4.6, day 0) was 98.7 ± 0.1%, the “Purity(%) at day 21 (5° C.)” value (pH 4.6, day 21, 5° C.) was 98.2 ± 0.2% and the “Purity(%) at day 21 (25° C.)” value (pH 4.6, day 21, 25° C.) was 96.4 ± 0.2%. The “Purity(%) at day 21 (40° C.)” value (pH 4.6, day 21, 40° C.) was 56.3 ± 0.2%, the “Purity (%) at day 21 (60° C.)” value (pH 4.6, day 21, 60° C.) was 15.3 ± 0.3% and the “Purity(%) at day 0” value (pH 5.0, day 0) was 98.6 ± 0.3%. For the same molecule, the “Purity(%) at day 21 (5° C.)” value (pH 5.0, day 21, 5° C.) was 97.0 ± 0.2%, the “Purity(%) at day 21 (25° C.)” value (pH 5.0, day 21, 25° C.) was 94.1 ± 0.3% and the “Purity(%) at day 21 (40° C.)” value (pH 5.0, day 21, 40° C.) was 42.8 ± 0.3%. The “Purity (%) at day 21 (60° C.)” value (pH 5.0, day 21, 60° C.) was 1.9 ± 0.2%, the “Purity(%) at day 0” value (pH 6.0, day 0) was 98.5 ± 0.4% and the “Purity(%) at day 21 (5° C.)” value (pH 6.0, day 21, 5° C.) was 95.3 ± 0.3%. The “Purity(%) at day 21 (25° C.)” value (pH 6.0, day 21, 25° C.) was 87.8 ± 0.2%, the “Purity(%) at day 21 (40° C.)” value (pH 6.0, day 21, 40° C.) was 27.6 ± 0.2% and the “Purity (%) at day 21 (60° C.)” value (pH 6.0, day 21, 60° C.) was 0%. The “Purity(%) at day 0” value (pH 7.0, day 0) was 98.4 ± 0.3%, the “Purity(%) at day 21 (5° C.)” value (pH 7.0, day 21, 5° C.) was 90.2 ± 0.3% and the “Purity(%) at day 21 (25° C.)” value (pH 7.0, day 21, 25° C.) was 59.9 ± 0.3%. For the same molecule, the “Purity(%) at day 21 (40° C.)” value (pH 7.0, day 21, 40° C.) was 11.4 ± 0.4%, the “Purity (%) at day 21 (60° C.)” value (pH 7.0, day 21, 60° C.) was 0% and the “Purity(%) at day 0” value (pH 8.0, day 0) was 98.0 ± 0.5%. The “Purity(%) at day 21 (5° C.)” value (pH 8.0, day 21, 5° C.) was 79.3 ± 0.4%, the “Purity(%) at day 21 (25° C.)” value (pH 8.0, day 21, 25° C.) was 47.6 ± 0.3% and the “Purity(%) at day 21 (40° C.)” value (pH 8.0, day 21, 40° C.) was 0%. For the same molecule, the “Purity (%) at day 21 (60° C.)” value (pH 8.0, day 21, 60° C.) was 0%.
